Among the data in patent US20250179078A1, “INHIBITORS OF NLRP3” (PTC THERAPEUTICS, INC., priority 2022, published 2025) are IC50 values, retold here.

SMILES strings stand for the structures.

This experiment addresses T1, NLRP3 (Homo sapiens, UniProt Q96P20).
T1 construct: host or cells: THP-1 cells differentiated with PMA
The experiment can be described thus: IL-1β Secretion Assay (NLRP3-dependent IL1β secretion in THP1 cells). The format is cell-based. The settings on record: PMA-differentiated THP-1 cells; compounds incubated 20 h; 2.5 μM Nigericin 3 h; HTRF IL-1β readout; read-out: IC50 IL-1β Inhibition. How it is done:
Monocytic THP-1 cells (ATCC: TIB-202) were maintained in growth media consisting of RPMI 1640 medium (ThermoFisher, Cat #11875-085), 10% FBS (ThermoFisher) and 0.05 mM β-mercaptoethanol (ThermoFisher, Cat #21985-023), according to the provider's instructions. The cell concentration was adjusted to 7.5×10^5 cells/mL, and plated in complete growth media with a final concentration of 100 ng/mL phorbol 12-myristate 13-acetate (PMA, Sigma #P8139). Cells were seeded at 100 µL/well into a 96-well cell culture plate (ThermoFisher Cat #165305) and allowed to differentiate for 24 h in a cell culture incubator at 37° C. with 5% CO2. Cells were washed 1× with 100 ul PBS and replaced with fresh RPMI+5% FBS. Compounds were serial diluted in DMSO with 3 fold dilution for a total of 7 concentrations. Diluted compounds were added to the cells at a ratio of 1:200 and incubated for 20 h. The NLRP3 inflammasome was activated with the addition of 2.5 μM Nigericin (Sigma: Cat #SML1779-1 ml), for 3 h. After incubation, 15 μL of conditioned media was removed and assayed for levels of IL-1β using the HTRF IL-1β assay kit (Cisbio: Cat #62HIL1BPEH) as per the manufacturer's instructions.
Compounds, once produced and prepared according to the present invention, can be assessed in variety of assays to characterize their activities. For example, NLRP3-dependent IL1β secretion was evaluated in THP1 cells. IC50 values of IL1β inhibition were calculated from the plot of percentage of inhibition versus the inhibitor concentration by a logistics fit. TABLE I depict examples of compounds according to generic Formula I. Data which is <1 nM is listed as *****; data 1-10 nM is listed as ****; data 10-100 nM is listed as ***, data 100-300 nM is listed as **, data ≥300 nM is listed as *.
In general terms: Time-resolved FRET reads energy transfer from a long-lived donor to a nearby acceptor.

T1 sequence (Q96P20 whole entry): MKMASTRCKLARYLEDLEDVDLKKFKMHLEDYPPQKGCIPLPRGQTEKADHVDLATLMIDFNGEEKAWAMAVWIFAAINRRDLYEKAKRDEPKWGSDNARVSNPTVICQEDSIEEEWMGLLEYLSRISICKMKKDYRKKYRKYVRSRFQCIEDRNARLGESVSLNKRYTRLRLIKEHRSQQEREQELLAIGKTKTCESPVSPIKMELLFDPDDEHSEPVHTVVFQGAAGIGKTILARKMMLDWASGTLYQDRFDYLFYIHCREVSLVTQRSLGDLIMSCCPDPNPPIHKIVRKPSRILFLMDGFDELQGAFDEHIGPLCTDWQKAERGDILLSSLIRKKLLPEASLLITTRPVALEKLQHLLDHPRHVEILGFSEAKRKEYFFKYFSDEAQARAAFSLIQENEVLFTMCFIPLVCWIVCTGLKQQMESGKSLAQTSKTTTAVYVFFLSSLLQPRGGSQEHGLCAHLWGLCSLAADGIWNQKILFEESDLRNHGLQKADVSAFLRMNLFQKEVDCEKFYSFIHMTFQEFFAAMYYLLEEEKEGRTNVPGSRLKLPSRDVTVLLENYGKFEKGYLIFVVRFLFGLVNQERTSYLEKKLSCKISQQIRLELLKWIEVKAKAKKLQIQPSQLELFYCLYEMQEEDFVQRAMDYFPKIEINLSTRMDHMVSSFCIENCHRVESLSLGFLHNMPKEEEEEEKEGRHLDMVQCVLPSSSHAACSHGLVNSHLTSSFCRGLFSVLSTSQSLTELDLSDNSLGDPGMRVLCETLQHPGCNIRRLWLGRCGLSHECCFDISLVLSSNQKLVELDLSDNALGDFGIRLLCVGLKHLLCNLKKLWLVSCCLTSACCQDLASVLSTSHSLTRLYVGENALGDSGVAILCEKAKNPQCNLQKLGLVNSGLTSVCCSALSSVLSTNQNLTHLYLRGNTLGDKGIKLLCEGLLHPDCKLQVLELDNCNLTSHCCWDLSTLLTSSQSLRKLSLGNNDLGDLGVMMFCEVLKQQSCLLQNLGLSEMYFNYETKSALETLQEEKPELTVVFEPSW

Broadly, the IC50 is the concentration at which inhibition is half-maximal. As to `O=C1NCCC1Nc1nnc(-c2ccc(Cl)cc2OC(F)(F)F)c2cncn12` (stereo not drawn) [Compound 287, 3-({1-[4-chloro-2-(trifluoromethoxy)phenyl]imidazo[1,5-d][1,2,4]triazin-4-yl}amino)pyrrolidin-2-one], the 50% inhibitory concentration (IC50) was in the range of 1 to 10 nM.

Turning to `FC(F)(F)c1ccc(-c2nnc(N[C@@H]3CCCN(C4CCCOC4)C3)n3cccc23)c(C(F)(F)F)c1` (stereo partly drawn) [Compound 6, 1-[2,4-bis(trifluoromethyl)phenyl]-N-[(3R)-1-(oxan-3-yl)piperidin-3-yl]pyrrolo[1,2-d][1,2,4]triazin-4-amine], the IC50 was 10 to 100 nM.

`COc1ccc(-c2nnc(N[C@@H]3CCCC[C@H]3O)n3cccc23)c(CC(F)(F)F)c1` [Compound 138, (1R,2R)-2-({1-[4-methoxy-2-(2,2,2-trifluoroethyl)phenyl]pyrrolo[1,2-d][1,2,4]triazin-4-yl}amino)cyclohexan-1-ol]: the IC50 was in the range of 1 to 10 nM.

On to `O[C@H]1COCC[C@@H]1Nc1nnc(-c2ccc(C(F)(F)F)cc2CC(F)(F)F)c2cccn12` [Compound 113, (3R,4S)-4-({1-[2-(2,2,2-trifluoroethyl)-4-(trifluoromethyl)phenyl]pyrrolo[1,2-d][1,2,4]triazin-4-yl}amino)oxan-3-ol], for which the IC50 was 1 to 10 nM.

`C[C@]1(O)C[C@@H](Nc2nnc(-c3ccc(C(F)(F)F)cc3C(F)(F)F)c3ccnn23)C1` [Compound 4, (1s,3s)-3-({4-[2,4-bis(trifluoromethyl)phenyl]pyrazolo[1,5-d][1,2,4]triazin-7-yl}amino)-1-methylcyclobutan-1-ol]: the IC50 lay in the range of 1 to 10 nM.

On to `CN(C)C1CCCN(c2nnc(-c3ccc(C(F)(F)F)cc3C(F)(F)F)c3cccn23)C1` (stereo not drawn) [Compound 7, 1-{1-[2,4-bis(trifluoromethyl)phenyl]pyrrolo[1,2-d][1,2,4]triazin-4-yl}-N,N-dimethylpiperidin-3-amine], for which the half-maximal inhibitory concentration (IC50) is 10 to 100 nM.

As to `Cc1ncn2c(N[C@@H]3CCCN(C)C3)nnc(-c3ccc(C(F)(F)F)cc3CC(F)(F)F)c12` [Compound 279, 8-methyl-N-[(3R)-1-methylpiperidin-3-yl]-1-[2-(2,2,2-trifluoroethyl)-4-(trifluoromethyl)phenyl]imidazo[1,5-d][1,2,4]triazin-4-amine], the IC50 is below 1 nM.

As for `CCN1CCC[C@@H](Nc2nnc(-c3ccc(OC)cc3OC(F)(F)F)c3cncn23)C1` [Compound 209, N-[(3R)-1-ethylpiperidin-3-yl]-1-[4-methoxy-2-(trifluoromethoxy)phenyl]imidazo[1,5-d][1,2,4]triazin-4-amine], the IC50 was below 1 nM.

Turning to `Cc1ccc(-c2nnc(N[C@@H]3CCOC[C@H]3O)n3cncc23)c(CC(F)(F)F)c1` [Compound 402, (3S,4R)-4-({1-[4-methyl-2-(2,2,2-trifluoroethyl)phenyl]imidazo[1,5-d][1,2,4]triazin-4-yl}amino)oxan-3-ol], the IC50 was 10 to 100 nM.

Regarding `C[C@H](O)CNc1nnc(-c2ccc(C(F)(F)F)cc2OC(F)F)c2c(F)ccn12` [Compound 16, (2S)-1-({1-[2-(difluoromethoxy)-4-(trifluoromethyl)phenyl]-8-fluoropyrrolo[1,2-d][1,2,4]triazin-4-yl}amino)propan-2-ol], the IC50 is 10 to 100 nM.

As to `CCN1CCC[C@@H](Nc2nnc(-c3ccc(OC)cc3Cl)c3c(F)ccn23)C1` [Compound 82, 1-(2-chloro-4-methoxyphenyl)-N-[(3R)-1-ethylpiperidin-3-yl]-8-fluoropyrrolo[1,2-d][1,2,4]triazin-4-amine], the half-maximal inhibitory concentration (IC50) lay in the range of 1 to 10 nM.

In the case of `OCCN1CCC[C@@H](Nc2nnc(-c3ccc(Br)cc3OC(F)F)c3cncn23)C1` [Compound 198, 2-[(3R)-3-({1-[4-bromo-2-(difluoromethoxy)phenyl]imidazo[1,5-d][1,2,4]triazin-4-yl}amino)piperidin-1-yl]ethan-1-ol], the IC50 was below 1 nM.

Regarding `CC(Nc1nnc(-c2ccc(OC(F)F)cc2OC(F)(F)F)c2cccn12)c1cccc(O)c1` (stereo not drawn) [Compound 172, 3-[1-({1-[4-(difluoromethoxy)-2-(trifluoromethoxy)phenyl]pyrrolo[1,2-d][1,2,4]triazin-4-yl}amino)ethyl]phenol], the IC50 was below 1 nM.

With `FC(F)Oc1cc(C(F)(F)F)ccc1-c1nnc(N[C@@H]2CCCOC2)n2cncc12` [Compound 188, 1-[2-(difluoromethoxy)-4-(trifluoromethyl)phenyl]-N-[(3R)-oxan-3-yl]imidazo[1,5-d][1,2,4]triazin-4-amine], the IC50 was in the range of 10 to 100 nM.

For `CCN1CCC[C@@H](Nc2nnc(-c3ccc(C)cc3OC(F)F)c3cccn23)C1` [Compound 34, 1-[2-(difluoromethoxy)-4-methylphenyl]-N-[(3R)-1-ethylpiperidin-3-yl]pyrrolo[1,2-d][1,2,4]triazin-4-amine], the IC50 lay in the range of 1 to 10 nM.

As for `FC(F)(F)c1ccc(-c2nnc(Nc3cc[nH]n3)n3cncc23)c(C(F)(F)F)c1` [Compound 285, 1-[2,4-bis(trifluoromethyl)phenyl]-N-(1H-pyrazol-3-yl)imidazo[1,5-d][1,2,4]triazin-4-amine], the IC50 was in the range of 10 to 100 nM.

For the compound `COc1ccc(-c2nnc(NC(C)c3ccccc3)n3cncc23)c(OC(F)(F)F)c1` (stereo not drawn) [Compound 231, 1-[4-methoxy-2-(trifluoromethoxy)phenyl]-N-(1-phenylethyl)imidazo[1,5-d][1,2,4]triazin-4-amine], the IC50 is at least 300 nM.

Turning to `CN1CCC[C@@H](Nc2nnc(-c3ccc(C(F)(F)F)cc3F)c3cccn23)C1` [Compound 19, 1-[2-fluoro-4-(trifluoromethyl)phenyl]-N-[(3R)-1-methylpiperidin-3-yl]pyrrolo[1,2-d][1,2,4]triazin-4-amine], the concentration for half-maximal inhibition (IC50) fell in the range of 10 to 100 nM.

In the case of `COc1ccc(-c2nnc(N[C@@H]3CCOC[C@H]3O)n3cncc23)c(OC(F)(F)F)c1` [Compound 292, (3S,4R)-4-({1-[4-methoxy-2-(trifluoromethoxy)phenyl]imidazo[1,5-d][1,2,4]triazin-4-yl}amino)oxan-3-ol], the IC50 is 10 to 100 nM.

With `O[C@@H]1COCC[C@H]1Nc1nnc(-c2ccc(C(F)(F)F)cc2C(F)(F)F)c2cncn12` [Compound 273, (3S,4R)-4-({1-[2,4-bis(trifluoromethyl)phenyl]imidazo[1,5-d][1,2,4]triazin-4-yl}amino)oxan-3-ol], the IC50 was in the range of 1 to 10 nM.

For `CN1C[C@@H](O)C[C@@H](Nc2nnc(-c3ccc(C(F)(F)F)cc3OC(F)F)c3cccn23)C1` [Compound 98, (3S,5R)-5-({1-[2-(difluoromethoxy)-4-(trifluoromethyl)phenyl]pyrrolo[1,2-d][1,2,4]triazin-4-yl}amino)-1-methylpiperidin-3-ol], the IC50 was in the range of 1 to 10 nM.

As to `O[C@@H]1CCCCC[C@H]1Nc1nnc(-c2ccc(C(F)(F)F)cc2CC(F)(F)F)c2cccn12.O[C@H]1CCCCC[C@@H]1Nc1nnc(-c2ccc(C(F)(F)F)cc2CC(F)(F)F)c2cccn12` [Compound 127, (1R,2R)-2-({1-[2-(2,2,2-trifluoroethyl)-4-(trifluoromethyl)phenyl]pyrrolo[1,2-d][1,2,4]triazin-4-yl}amino)cycloheptan-1-ol AND (1S,2S)-2-({1-[2-(2,2,2-trifluoroethyl)-4-(trifluoromethyl)phenyl]pyrrolo[1,2-d][1,2,4]triazin-4-yl}amino)cycloheptan-1-ol], the 50% inhibitory concentration (IC50) fell in the range of 10 to 100 nM.

On to `COc1ccc(-c2nnc(N[C@@H]3C[C@@H](F)CN(C)C3)n3cccc23)c(OC(F)(F)F)c1` [Compound 60, N-[(3R,5R)-5-fluoro-1-methylpiperidin-3-yl]-1-[4-methoxy-2-(trifluoromethoxy)phenyl]pyrrolo[1,2-d][1,2,4]triazin-4-amine], for which the half-inhibitory concentration (IC50) is 1 to 10 nM.

Take `COc1ccc(-c2nnc(NC3CCOCC3)n3cccc23)c(OC(F)(F)F)c1` [Compound 67, 1-[4-methoxy-2-(trifluoromethoxy)phenyl]-N-(oxan-4-yl)pyrrolo[1,2-d][1,2,4]triazin-4-amine]: the IC50 was in the range of 1 to 10 nM.

As to `COc1ccc(-c2nnc(NCc3cc[nH]n3)n3cncc23)c(OC(F)(F)F)c1` [Compound 234, 1-[4-methoxy-2-(trifluoromethoxy)phenyl]-N-[(1H-pyrazol-3-yl)methyl]imidazo[1,5-d][1,2,4]triazin-4-amine], the IC50 is 10 to 100 nM.

Regarding `COc1ccc(-c2nnc(N[C@H]3CCCC[C@]3(C)O)n3cncc23)c(OC(F)(F)F)c1` (single isomer, unassigned) [Compound 310], the half-inhibitory concentration (IC50) was at least 300 nM.

Take `Cc1cc2c(-c3ccc(C(F)(F)F)cc3OC(F)F)nnc(NC(C)c3cccc(O)c3)n2n1` (stereo not drawn) [Compound 383, 3-[1-({4-[2-(difluoromethoxy)-4-(trifluoromethyl)phenyl]-2-methylpyrazolo[1,5-d][1,2,4]triazin-7-yl}amino)ethyl]phenol]: the IC50 is 1 to 10 nM.
